ChEMBL document CHEMBL1909046, “DrugMatrix in vitro pharmacology data”

Legend:
[1] = molecular target: T1, Alpha-1B adrenergic receptor (Rattus norvegicus, UniProt P15823); test: DRUGMATRIX: Alpha-1B adrenergic receptor radioligand binding (ligand: prazosin); format: cell membranes, Wistar, Liver, Membrane; conditions: Not Active = under 50% inhibition at 10 µM
T1 sequence (P15823 whole entry): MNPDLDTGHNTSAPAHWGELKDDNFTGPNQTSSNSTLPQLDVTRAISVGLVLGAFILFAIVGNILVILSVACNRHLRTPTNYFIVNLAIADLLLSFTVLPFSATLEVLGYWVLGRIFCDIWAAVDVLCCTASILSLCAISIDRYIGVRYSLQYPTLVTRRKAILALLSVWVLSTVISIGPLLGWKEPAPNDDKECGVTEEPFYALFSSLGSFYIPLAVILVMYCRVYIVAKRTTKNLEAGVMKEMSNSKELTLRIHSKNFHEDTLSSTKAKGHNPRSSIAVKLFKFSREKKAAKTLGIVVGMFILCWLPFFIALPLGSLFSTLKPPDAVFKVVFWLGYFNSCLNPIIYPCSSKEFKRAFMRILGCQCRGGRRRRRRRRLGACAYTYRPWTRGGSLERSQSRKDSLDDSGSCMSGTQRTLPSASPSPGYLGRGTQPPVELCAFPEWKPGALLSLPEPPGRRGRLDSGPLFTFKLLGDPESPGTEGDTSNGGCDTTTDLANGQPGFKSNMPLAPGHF

[2] = DRUGMATRIX: GABAA, Muscimol, Central radioligand binding (ligand: [3H] Muscimol); format: cell membranes, Rattus norvegicus, Wistar, Brain, Membrane; conditions: Not Active = under 50% inhibition at 10 µM
Substance-P receptor = Substance-P receptor (Homo sapiens, UniProt P25103); format: cell membranes, CHO, Membrane; conditions: cho; note: in other assays of this panel Not Active means under 50% inhibition at 10 µM
Substance-P receptor, sequence (P25103 whole entry): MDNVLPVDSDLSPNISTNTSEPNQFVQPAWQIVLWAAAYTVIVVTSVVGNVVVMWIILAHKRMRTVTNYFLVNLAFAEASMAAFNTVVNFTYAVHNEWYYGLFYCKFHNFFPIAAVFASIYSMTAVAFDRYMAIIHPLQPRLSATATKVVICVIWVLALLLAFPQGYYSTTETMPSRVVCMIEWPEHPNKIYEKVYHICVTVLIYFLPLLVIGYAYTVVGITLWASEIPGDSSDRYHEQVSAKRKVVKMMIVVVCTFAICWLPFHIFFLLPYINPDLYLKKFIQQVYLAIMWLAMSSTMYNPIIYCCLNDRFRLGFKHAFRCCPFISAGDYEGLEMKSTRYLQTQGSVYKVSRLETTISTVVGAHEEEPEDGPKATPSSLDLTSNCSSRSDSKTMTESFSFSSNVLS

Adenosine receptor A3 = molecular target: T2, Adenosine receptor A3 (Homo sapiens, UniProt P0DMS8); format: cell membranes, CHO-K1, Membrane;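 note: radioligand binding assay with AB-MECA serving as the labeled ligand; in other assays of this panel Not Active means under 50% inhibition at 10 µM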
T2 sequence (P0DMS8 whole entry): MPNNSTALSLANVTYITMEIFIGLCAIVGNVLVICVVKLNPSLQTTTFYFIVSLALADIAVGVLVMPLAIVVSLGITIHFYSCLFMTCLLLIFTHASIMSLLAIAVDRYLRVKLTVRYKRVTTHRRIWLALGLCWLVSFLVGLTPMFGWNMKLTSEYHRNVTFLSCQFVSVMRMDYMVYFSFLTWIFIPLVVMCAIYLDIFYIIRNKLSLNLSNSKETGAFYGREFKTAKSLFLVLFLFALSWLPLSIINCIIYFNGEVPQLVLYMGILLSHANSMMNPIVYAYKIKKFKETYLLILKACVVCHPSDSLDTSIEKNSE

Cytochrome P450 2D6 = Cytochrome P450 2D6 (Homo sapiens, UniProt P10635); conditions: bti-tn-5b1-4; note: in other assays of this panel Not Active means under 50% inhibition at 10 µM
Cytochrome P450 2D6, sequence (P10635 whole entry): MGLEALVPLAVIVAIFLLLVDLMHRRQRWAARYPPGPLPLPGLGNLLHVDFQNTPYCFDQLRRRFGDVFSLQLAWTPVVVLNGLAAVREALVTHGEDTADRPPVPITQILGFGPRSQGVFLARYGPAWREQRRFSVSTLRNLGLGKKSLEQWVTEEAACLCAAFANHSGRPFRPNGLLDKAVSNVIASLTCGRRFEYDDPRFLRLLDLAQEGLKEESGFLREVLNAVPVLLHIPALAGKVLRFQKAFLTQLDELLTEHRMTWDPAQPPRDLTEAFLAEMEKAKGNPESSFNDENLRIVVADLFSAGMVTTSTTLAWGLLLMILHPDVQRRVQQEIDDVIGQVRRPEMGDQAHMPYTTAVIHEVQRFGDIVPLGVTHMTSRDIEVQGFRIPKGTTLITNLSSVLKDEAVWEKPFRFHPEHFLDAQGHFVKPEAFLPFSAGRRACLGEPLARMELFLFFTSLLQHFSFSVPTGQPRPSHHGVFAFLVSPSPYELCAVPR

[3] = molecular target: Kappa-type opioid receptor (Homo sapiens, UniProt P41145); test: DRUGMATRIX: Opiate kappa (OP2, KOP) radioligand binding (ligand: [3H] Diprenorphine); format: cell membranes, HEK293, Membrane; conditions: hek293; Not Active = under 50% inhibition at 10 µM
Kappa-type opioid receptor, sequence (P41145 whole entry): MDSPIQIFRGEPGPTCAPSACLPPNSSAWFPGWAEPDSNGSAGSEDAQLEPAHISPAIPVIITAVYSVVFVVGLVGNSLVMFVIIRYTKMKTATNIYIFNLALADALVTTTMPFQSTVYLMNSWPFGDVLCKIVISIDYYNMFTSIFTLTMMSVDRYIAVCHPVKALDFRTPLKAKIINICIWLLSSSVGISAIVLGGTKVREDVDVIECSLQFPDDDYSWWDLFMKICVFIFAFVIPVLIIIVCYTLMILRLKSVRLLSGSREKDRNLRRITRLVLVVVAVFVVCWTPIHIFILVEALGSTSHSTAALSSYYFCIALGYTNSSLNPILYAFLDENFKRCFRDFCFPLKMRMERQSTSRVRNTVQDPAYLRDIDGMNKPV

Compound | IC50 [1] | IC50 [2] | Ki [2] | IC50 (Substance-P receptor) | IC50 (Adenosine receptor A3; cho-k1) | IC50 (Cytochrome P450 2D6) | Ki (Cytochrome P450 2D6) | IC50 [3] | Ki [1] | Ki (Substance-P receptor) | IC50 (Adenosine receptor A3; cho-k1, read-out: IC50) | Ki (Adenosine receptor A3; cho-k1, read-out: Ki) | Ki (Adenosine receptor A3; cho-k1) | IC50 (Adenosine receptor A3; read-out: IC50) | Ki (Adenosine receptor A3; read-out: Ki) | IC50 ([1]; read-out: IC50) | Ki ([1]; read-out: Ki)
Cc1nnc2n1-c1ccc(Cl)cc1C(c1ccccc1)=NC2 [ALPRAZOLAM] | Not Active | Not Active | Not Active | Not Active | Not Active | Not Active | Not Active | – | – | – | – | – | – | – | – | – | –
COC(=O)CCc1ccc(OCC(O)CNC(C)C)cc1 (stereo not drawn) [ESMOLOL] | Not Active | Not Active | Not Active | Not Active | Not Active | Not Active | Not Active | Not Active | – | – | – | – | – | – | – | – | –
COc1ccc2cc3[n+](cc2c1OC)CCc1cc2c(cc1-3)OCO2.[Cl-] [BERBERINE CHLORIDE] | Not Active | Not Active | Not Active | Not Active | Not Active | – | – | Not Active | – | – | – | – | – | – | – | – | –
NC(=O)C[S+]([O-])C(c1ccccc1)c1ccccc1 (stereo not drawn) [MODAFINIL] | Not Active | Not Active | Not Active | Not Active | Not Active | Not Active | Not Active | Not Active | – | – | – | – | – | – | – | – | –
CC(C)=CCC/C(C)=C/CO [GERANIOL] | Not Active | Not Active | Not Active | Not Active | Not Active | – | – | Not Active | – | – | – | – | – | – | – | – | –
NCCCC(O)(P(=O)(O)O)P(=O)(O)O [ALENDRONIC ACID] | Not Active | Not Active | Not Active | Not Active | Not Active | – | – | Not Active | – | – | – | – | – | – | – | – | –
C[C@@H]1CC[C@@]2(OC1)O[C@H]1[C@@H](O)[C@H]3[C@@H]4CC[C@H]5C[C@@H](O[C@@H]6O[C@H](CO)[C@H](O[C@@H]7O[C@H](CO)C(O)[C@H](O[C@@H]8OC[C@@H](O)[C@H](O)[C@H]8O)[C@H]7O[C@@H]7O[C@H](CO)[C@H](O)[C@H](O[C@@H]8O[C@H](CO)[C@@H](O)[C@H](O)[C@H]8O)[C@H]7O)[C@H](O)[C@H]6O)[C@H](O)C[C@]5(C)[C@H]4CC[C@]3(C)[C@H]1[C@@H]2C (stereo partly drawn) [DIGITONIN] | Not Active | Not Active | Not Active | Not Active | Not Active | Not Active | Not Active | Not Active | – | – | – | – | – | – | – | – | –
AURANOFIN | Not Active | Not Active | Not Active | Not Active | – | Not Active | Not Active | – | Not Active | Not Active | 1.69 µM | 0.954 µM | – | – | – | – | –
GADOPENTETATE DIMEGLUMINE | Not Active | Not Active | Not Active | Not Active | Not Active | Not Active | Not Active | – | Not Active | Not Active | – | – | Not Active | – | – | – | –
CC(=O)[C@@]1(O)CC[C@H]2[C@@H]3CCC4=CC(=O)CC[C@]4(C)[C@H]3CC[C@@]21C [HYDROXYPROGESTERONE] | Not Active | Not Active | Not Active | Not Active | – | – | – | Not Active | – | – | – | – | – | 4.73 µM | 2.67 µM | – | –
COC1=C(OC)C(=O)C(CCCCCCCCCCO)=C(C)C1=O [IDEBENONE] | Not Active | Not Active | Not Active | Not Active | Not Active | – | – | Not Active | – | – | – | – | – | – | – | – | –
C[C@@H]1C[C@H]2[C@@H]3CCC4=CC(=O)C=C[C@]4(C)[C@@]3(F)[C@@H](O)C[C@]2(C)[C@@]1(O)C(=O)CO [DEXAMETHASONE] | Not Active | Not Active | Not Active | Not Active | Not Active | – | – | Not Active | – | – | – | – | – | – | – | – | –
GRAMICIDIN | Not Active | Not Active | Not Active | Not Active | Not Active | Not Active | Not Active | – | Not Active | Not Active | – | – | Not Active | – | – | – | –
OC(CCCN1CCCCC1)(c1ccccc1)c1ccccc1 [DIPHENIDOL] | – | Not Active | Not Active | Not Active | Not Active | – | – | Not Active | – | – | – | – | – | – | – | 4.76 µM | 2.64 µM
Cc1c(OCC(F)(F)F)ccnc1C[S+]([O-])c1nc2ccccc2[nH]1 (stereo not drawn) [LANSOPRAZOLE] | Not Active | Not Active | Not Active | Not Active | Not Active | – | – | Not Active | – | – | – | – | – | – | – | – | –
C[C@@H]1O[C@@H](O[C@@H]2C=C3CC[C@@H]4[C@H](CC[C@]5(C)[C@@H](c6ccc(=O)oc6)CC[C@]45O)[C@@]3(C)CC2)[C@H](O)[C@H](O)[C@H]1O [PROSCILLARIDIN] | Not Active | Not Active | Not Active | Not Active | Not Active | Not Active | Not Active | – | – | – | – | – | – | – | – | – | –
CC(C)c1cccc(C(C)C)c1O [PROPOFOL] | Not Active | Not Active | Not Active | Not Active | Not Active | – | – | – | – | – | – | – | – | – | – | – | –
NYSTATIN | Not Active | Not Active | Not Active | Not Active | Not Active | Not Active | Not Active | – | Not Active | Not Active | – | – | Not Active | – | – | – | –
Cc1cc2c(OCC(CNC(C)(C)C)OC(=O)c3ccccc3)cccc2[nH]1 (stereo not drawn) [BOPINDOLOL] | Not Active | Not Active | Not Active | Not Active | Not Active | – | – | Not Active | – | – | – | – | – | – | – | – | –
C[C@@H](CO)NC(=O)[C@@H]1C=C2c3cccc4[nH]cc(c34)C[C@H]2N(C)C1 [ERGONOVINE] | Not Active | Not Active | Not Active | Not Active | Not Active | Not Active | Not Active | – | – | – | – | – | – | – | – | – | –
COc1cc(N)c(Cl)cc1C(=O)NC1CCN(CCCOc2ccc(F)cc2)CC1OC (stereo not drawn) [CISAPRIDE] | – | Not Active | Not Active | Not Active | Not Active | – | – | Not Active | – | – | – | – | – | – | – | 0.016 µM | 0.00865 µM
GENTAMICIN | Not Active | Not Active | Not Active | Not Active | Not Active | Not Active | Not Active | – | Not Active | Not Active | – | – | Not Active | – | – | – | –
CCCNCC(O)COc1ccccc1C(=O)CCc1ccccc1 (stereo not drawn) [PROPAFENONE] | – | Not Active | Not Active | Not Active | Not Active | – | – | Not Active | – | – | – | – | – | – | – | – | –
CC(C)NCC(O)COc1cccc2[nH]ccc12 (stereo not drawn) [PINDOLOL] | Not Active | Not Active | Not Active | Not Active | Not Active | – | – | Not Active | – | – | – | – | – | – | – | – | –
COc1cc2nc(N3CCN(C(=O)c4ccco4)CC3)nc(N)c2cc1OC [PRAZOSIN] | – | Not Active | Not Active | Not Active | Not Active | Not Active | Not Active | Not Active | – | – | – | – | – | – | – | – | –
COc1cc([C@@H]2c3cc4c(cc3[C@@H](O[C@@H]3O[C@@H]5CO[C@@H](C)O[C@H]5[C@H](O)[C@H]3O)[C@H]3COC(=O)[C@H]23)OCO4)cc(OC)c1O [ETOPOSIDE] | Not Active | Not Active | Not Active | Not Active | Not Active | – | – | Not Active | – | – | – | – | – | – | – | – | –
COc1ccc2c3c1O[C@H]1C[C@@H](O)C=C[C@@]31CCN(C)C2 [GALANTAMINE] | Not Active | Not Active | Not Active | Not Active | Not Active | – | – | Not Active | – | – | – | – | – | – | – | – | –
CN1[C@@H]2CC[C@H]1C[C@@H](OC(=O)C(CO)c1ccccc1)C2 (stereo partly drawn) [ATROPINE] | Not Active | Not Active | Not Active | Not Active | Not Active | – | – | Not Active | – | – | – | – | – | – | – | – | –
O=C/C=C/c1ccccc1 | Not Active | Not Active | Not Active | Not Active | Not Active | Not Active | Not Active | – | – | – | – | – | – | – | – | – | –
C[n+]1ccc(-c2cc[n+](C)cc2)cc1.[Cl-].[Cl-] [PARAQUAT DICHLORIDE] | Not Active | Not Active | Not Active | Not Active | Not Active | Not Active | Not Active | – | – | – | – | – | – | – | – | – | –
